{"source": "patent US6642036B2", "about": "“Sinapoylglucose:malate sinapoyltransferase form malate conjugates from benozic acid glucosides” (E. I. Du Pont de Nemours and Company, priority 2000, dated 2003)", "molecules": {"B1": {"name": "purified recombinant SMT: recombinant mature Arabidopsis sinapoylglucose:malate sinapoyltransferase (SEQ ID NO:7) folded from E. coli inclusion bodies (protein)", "chain": "MTSIVKFLPGFEGPLPFELETGYIGIGEDENVQFFYYFIKSENNPKEDPLLIWLNGGPGCSCLGGIIFENGPVGLKFEVFNGSAPSLFSTTYSWTKMANIIFLDQPVGSGFSYSKTPIDKTGDISEVKRTHEFLQKWLSRHPQYFSNPLYVVGDSYSGMIVPALVQEISQGNYICCEPPINLQGYMLGNPVTYMDFEQNFRIPYAYGMGLISDEIYEPMKRICNGNYYNVDPSNTQCLKLTEEYHKCTAKINIHHILTPDCDVTNVTSPDCYYYPYHLIECWANDESVREALHIEKGSKGKWARCNRTIPYNHDIVSSIPYHMNNSISGYRSLIYSGDHDIAVPFLATQAWIRSLNYSPIHNWRPWMINNQIAGYTRAYSNKMTFATIKGGGHTAEYRPNETFIMFQRWISGQPL"}}, "key": {"[1]": {"biological_target": "T1, recombinantly produced, refolded SMT protein (Arabidopsis thaliana, UniProt Q8RUW5, A20T/S19M)", "T1 construct": "consisting primarily of recombinant mature Arabidopsis SMT and some minor protein contaminants; initiator Met (start codon added in place of the signal peptide) (N); made in house", "assay_type": "biochemical", "details": "for acceptance as acyl acceptor with sinapoylglucose or PHBA 1-O-acylglucoside: 200 ng SMT, 500 μM glucose ester, 400 mM alcohol, pH 6.2, 30° C. for 16 h", "description": "Sinapoyl glucose was purified from the sng1 mutant of Arabidopsis as described by Lorenzen et al. (Plant Physiology 112:1625-1630 (1996)). The SMT assay contained 12.5 μL of 0.5 mM sinapoyl glucose in 100 mM potassium phosphate buffer (pH 7.5), 5 μL of 100 mM potassium phosphate buffer (pH 6.0), 5 μL of 1 M malic acid in potassium phosphate buffer (pH 6.0) and 5 μL of E. coli extract corresponding to 100 μg of protein. Assays were incubated for 14 h at 30° C., stopped by addition of 30 μL of methanol and stored at −70° C. before analysis by HPLC. Enzyme assays were analyzed by HPLC on a Nova-Pak® Pak® C18 column (60 Å pore size, […] particle size) using a gradient from 6% acetonitrile, 1.5% phosphoric acid to 48% acetonitrile, followed by 1.5% phosphoric acid and UV detection at 335 nm.\nApproximately 250 ng of recombinantly produced, refolded SMT protein was incubated with 200 mM malate, 0.1 mM PHBA 1-O-acyl glucoside in a 25 μL reaction in 100 mM potassium phosphate buffer (pH 6.2) for 12 h at 30° C. Reaction products were separated by HPLC as described in the General Methods. […] The compound was analyzed by LC-MS as described in the General Methods.\nThe activity of the SMT enzyme was determined using sinapoyl glucose and L-lactate as follows. 1 μg of partially purified recombinant SMT protein was incubated with 500 μM sinapoyl glucose in 100 mM potassium phosphate buffer (pH 6.2) in the absence or presence of 200 mM L-lactate. Enzyme reactions were incubated at 30° C. for 12 h. Reaction products were analyzed by HPLC as described in the General Methods.\nActivity of the SMT enzyme was determined using sinapoylglucose or PHBA 1-O-acylglucoside and methanol, ethanol and isopropanol. Briefly, 200 ng of partially purified recombinantly produced SMT protein was incubated with 500 μM of the glucose ester of sinapic acid or PHBA in 100 mM potassium phosphate buffer (pH 6.2) in the absence or presence of 400 mM of the respective alcohols in 100 μL enzyme reactions. Enzyme reactions were incubated at 30° C. for 16 h. All reaction products were analyzed by HPLC as described in Example 1."}, "[2]": {"biological_target": "SMT (sinapoylglucose:malate sinapoyltransferase) (Arabidopsis thaliana, UniProt Q8RUW5, A20T/S19M)", "description": "Sinapoyl glucose was purified from the sng1 mutant of Arabidopsis as described by Lorenzen et al. (Plant Physiology 112:1625-1630 (1996)). […] Assays were incubated for 14 h at 30° C., stopped by addition of 30 μL of methanol and stored at −70° C. before analysis by HPLC. Enzyme assays were analyzed by HPLC on a Nova-Pak® Pak® C18 column (60 Å pore size, […] particle size) using a gradient from 6% acetonitrile, 1.5% phosphoric acid to 48% acetonitrile, followed by 1.5% phosphoric acid and UV detection at 335 nm."}, "O=C(O)CC(O)C(=O)O": {"test_system": "O=C(O)CC(O)C(=O)O", "experiment": "purified protein, by the assay type", "details": "other: 30° C., 500 μM sinapoyl glucose, 100 mM potassium phosphate buffer (pH 6.8), 50 ng partially purified SMT, Hofstee plot"}, "[3]": {"biological_target": "T2, sinapoyl glucose and L-malate (SMT reaction) (Arabidopsis thaliana, UniProt Q8RUW5, A20T/S19M)", "T2 construct": "consisting primarily of recombinant mature Arabidopsis SMT and some minor protein contaminants; initiator Met (start codon added in place of the signal peptide) (N); made in house", "experiment": "Turnover number of purified recombinant SMT folded from inclusion bodies", "assay_type": "biochemical", "details": "30° C., 100 mM potassium phosphate buffer (pH 6.2), 500 μM sinapoyl glucose, 200 mM L-malate", "description": "As judged by SDS-PAGE and Coomassie-blue staining, the folded recombinant protein was at least 80% pure and the final yield of active SMT from the 100 mL folding reaction was ˜6 μg, corresponding to ˜0.52% of the original inclusion body material. The turnover number for purified recombinant SMT folded from inclusion bodies was ˜18/sec at 30° C., which compares favorably to the 11.5/sec value that was previously reported for the authentic protein purified from radish (Graewe et al., Planta 187:236-241 (1992)). For this determination the 25 μL enzyme reaction contained 100 mM potassium phosphate buffer (pH 6.2), 500 μM sinapoyl glucose and 200 mM L-malate."}}, "note": "Where two headings read alike, the source gives them in different places."}
{"molecule": "C[C@H](O)C(=O)O", "note": "[L-lactate]", "values": [{"measurement": "acceptance as acyl acceptor with sinapoyl glucose", "setting": "[1]; 1 μg SMT, 500 μM sinapoyl glucose, 200 mM L-lactate, pH 6.2, 30° C. for 12 h, product m/z agrees with sinapoyl lactate", "value": "a new compound that absorbs at 335 nm is produced"}]}
{"molecule": "O=C(O[C@@H]1O[C@H](CO)[C@@H](O)[C@H](O)[C@H]1O)c1ccc(O)cc1", "note": "[PHBA 1-O-acyl glucoside]", "values": [{"measurement": "Vmax of SMT for PHBA 1-O-acyl glucoside", "setting": "[2]; 30° C., 200 mM malate, 500 ng partially purified SMT, y-intercept of regression curve", "value": 0.2482, "unit": "μmol min^−1 mg^−1 protein"}, {"measurement": "Km", "setting": "[2]; read-out: Km of SMT for PHBA 1-O-acyl glucoside, 30° C., 200 mM malate, 100 mM potassium phosphate buffer (pH 6.8), 500 ng partially purified SMT, PHBA malate synthesis, Hofstee plot", "value": "~354", "unit": "µM"}, {"measurement": "conversion by SMT in the presence of malate", "setting": "[1]; 250 ng SMT, 200 mM malate, 0.1 mM PHBA 1-O-acyl glucoside, pH 6.2, 12 h at 30° C., product m/z agrees with PHBA malate", "value": "converted to a new compound"}]}
{"molecule": "CCO", "note": "[ethanol]", "values": [{"measurement": "acceptance as acyl acceptor with sinapoylglucose or PHBA 1-O-acylglucoside", "setting": "[1]", "value": "production of methyl, ethyl and isopropyl esters of sinapic acid and PHBA"}]}
{"molecule": "CC(C)O", "note": "[isopropanol]", "values": [{"measurement": "acceptance as acyl acceptor with sinapoylglucose or PHBA 1-O-acylglucoside", "setting": "[1]", "value": "production of methyl, ethyl and isopropyl esters of sinapic acid and PHBA"}]}
{"molecule": "CO", "note": "[methanol]", "values": [{"measurement": "acceptance as acyl acceptor with sinapoylglucose or PHBA 1-O-acylglucoside", "setting": "[1]", "value": "production of methyl, ethyl and isopropyl esters of sinapic acid and PHBA"}]}
{"molecule": "COc1cc(/C=C/C(=O)O[C@@H]2O[C@H](CO)[C@@H](O)[C@H](O)[C@H]2O)cc(OC)c1O", "note": "[sinapoyl glucose]", "values": [{"measurement": "Vmax of SMT for sinapoyl glucose", "setting": "[2]; 30° C., 200 mM malate, 50 ng partially purified SMT, y-intercept of regression curve", "value": 21.315, "unit": "μmol min^−1 mg^−1 protein"}, {"measurement": "Km", "setting": "[2]; read-out: Km of SMT for sinapoyl glucose, pH 6.8", "value": "~541", "unit": "µM"}]}
{"molecule": "SMT (sinapoylglucose:malate sinapoyltransferase) (Arabidopsis thaliana; A20T/S19M)", "values": [{"measurement": "Km", "setting": "O=C(O)CC(O)C(=O)O", "value": 42000, "unit": "µM"}]}
{"molecule": "B1", "values": [{"measurement": "turnover number", "setting": "[3]", "value": "~18", "unit": "s⁻¹"}]}
